Assay results: patent US20220370440A1 (Lead Discovery Center GmbH, priority 2018, published 2022)

What was measured:
[1] = target: Her2 Exon 20 INSYVMA Ba/F3 (Homo sapiens, UniProt P04626, DUP772-775, cells depend on it); experiment: Her2 Exon 20 INSYVMA Ba/F3 CellTiter-Glo; type: cell-based; conditions: CellTiter-Glo, 72 h, read-out: Her2 Exon 20 INSYVMA Ba/F3 CTG IC50
Method in brief: (§1)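 Seed Ba/F3 cells; 24 h, 37 °C/5% CO2. Add cpds in DMSO, multiple concs; 72 h. CellTiter-Glo, 10 min RT, luminescence. IC50 by curve fit. Z′ ≥0.5 from DMSO vs 10 μM staurosporine.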

HER2 INS YVMA = target: T1, HER2 INS YVMA (Homo sapiens, UniProt P04626, INS775YVMA); experiment: Lance Kinase Activity Assay, HER2 INS YVMA (Her2 Exon 20 INSYVMA Lance); type: biochemical; conditions: biochemical Lance assay
T1 construct: purchased DPF
Method in brief: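 Kinase phosphorylates a ULight-labelled peptide substrate; Eu anti-phospho antibody gives TR-FRET (ex 340 nm, em 665/615 nm). Compounds in 1:3 serial dilution over 8 steps, reaction started with ATP, 1 h at room temperature, stopped with EDTA-containing detection mix for 1 h. IC50 from sigmoidal dose-response curves.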

EGFR wt = EGFR wt (Homo sapiens, UniProt P00533); experiment: EGFR wt Lance assay; type: biochemical
Procedure: (§2) Inhibition is indicated as […] [nM] (“−”=not measured). Compounds having an activity designated as “A” provided an IC50≤100 nM; compounds having an activity designated as “B” provided an 100 nM<IC50≤500 nM; compounds having an activity designated as “C” provided an 500 nM<IC50≤1000 nM; compounds having an activity designated as “D” provided an 1000 nM<IC50≤100000 nM; and compounds having an activity designated as “E” provided an IC50>10000 nM.

A431 = A431 CellTiter-Glo; type: cell-based; conditions: Homo sapiens, A-431; 72 h compound incubation; read-out: A431 CTG IC50
Method in brief: (§3)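 Luminescence from cellular ATP serves as the viability signal after cells are treated with compound dilutions for 72 h at 37° C. IC50 is derived by curve fitting, with DMSO-treated and 10 μM Staurosporine-treated wells defining the assay window.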

[2] = Metabolic stability in mouse liver microsomes without cofactor NADPH; type: in vitro ADME; conditions: 3 μM test compound, mouse liver microsomes, without NADPH, 50 min, 37° C., LC-MS/MS
Method in brief: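 Test compound (3 μM) was incubated with mouse liver microsomes without NADPH at 37° C. Depletion was followed by LC-MS/MS over time up to 50 min.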

[3] = target: EGFR Exon 20 INSNPH Ba/F3 (Homo sapiens, UniProt P00533, DUP771-773, cells depend on it); experiment: EGFR Exon 20 INSNPH Ba/F3 CellTiter-Glo; type: cell-based; conditions: CellTiter-Glo, 72 h, read-out: EGFR Exon 20 INSNPH Ba/F3 CTG IC50
Method in brief: as §1

H1781 = H1781 CellTiter-Glo; type: cell-based; conditions: NCI-H1781; 72 h compound incubation; read-out: H1781 CTG IC50
Procedure: 2. Measurement of Cellular Activity
The CellTiter-Glo Luminescent Cell Viability Assay (Promega) is a homogeneous method of determining the number of viable cells in culture. It is based on quantification of ATP, indicating the presence of metabolically active cells. Cells are seeded on day 1 at cell numbers that assure assay linearity and optimal signal intensity. After incubation for 24 h in humidified chambers at 37° C. and 5% CO2, compounds in DMSO are added at different concentrations. Cells are further incubated for 72 h at 37° C. and 5% CO2. Cells treated with the compound vehicle DMSO are used as positive controls and cells treated with 10 μM Staurosporine serve as negative controls. At day 5 the CellTiter Glo Reagent is prepared according to the instructions of the kit (Promega Inc.): Reagent is mixed 1:1 with cell culture medium. Thereon, mixture and assay plates are equilibrated at room temperature for 20 min. Equal volumes of the reagent-medium-mixture is added to the volume of culture medium present in each well. The plates are mixed at ˜200 rpm for 2 minutes on an orbital shaker. The microplates are then incubated at room temperature for 10 minutes for stabilization of the luminescent signal. Following incubation the luminescence is recorded on a Victor microplate reader (Perkin Elmer) using a 200 ms integration time. The data is then analyzed with Excel using the XLFIT Plugin (dose response Fit 205) for IC50-determination. As quality control the Z′-factor is calculated from 16 positive and negative control values. Only assay results showing a Z′-factor ≥0.5 are used for further analysis.
as §2

H1975 = H1975 CellTiter-Glo; type: cell-based; conditions: Homo sapiens, NCI-H1975; 72 h compound incubation; read-out: H1975 CTG IC50
Method in brief: as §3

EGFR T790ML858R = EGFR T790ML858R (Homo sapiens, UniProt P00533, L858R/T790M); experiment: EGFR T790ML858R Lance assay; type: biochemical
Procedure: as §2

T1 sequence (P04626 with tags, fused parts or gaps INS775YVMA): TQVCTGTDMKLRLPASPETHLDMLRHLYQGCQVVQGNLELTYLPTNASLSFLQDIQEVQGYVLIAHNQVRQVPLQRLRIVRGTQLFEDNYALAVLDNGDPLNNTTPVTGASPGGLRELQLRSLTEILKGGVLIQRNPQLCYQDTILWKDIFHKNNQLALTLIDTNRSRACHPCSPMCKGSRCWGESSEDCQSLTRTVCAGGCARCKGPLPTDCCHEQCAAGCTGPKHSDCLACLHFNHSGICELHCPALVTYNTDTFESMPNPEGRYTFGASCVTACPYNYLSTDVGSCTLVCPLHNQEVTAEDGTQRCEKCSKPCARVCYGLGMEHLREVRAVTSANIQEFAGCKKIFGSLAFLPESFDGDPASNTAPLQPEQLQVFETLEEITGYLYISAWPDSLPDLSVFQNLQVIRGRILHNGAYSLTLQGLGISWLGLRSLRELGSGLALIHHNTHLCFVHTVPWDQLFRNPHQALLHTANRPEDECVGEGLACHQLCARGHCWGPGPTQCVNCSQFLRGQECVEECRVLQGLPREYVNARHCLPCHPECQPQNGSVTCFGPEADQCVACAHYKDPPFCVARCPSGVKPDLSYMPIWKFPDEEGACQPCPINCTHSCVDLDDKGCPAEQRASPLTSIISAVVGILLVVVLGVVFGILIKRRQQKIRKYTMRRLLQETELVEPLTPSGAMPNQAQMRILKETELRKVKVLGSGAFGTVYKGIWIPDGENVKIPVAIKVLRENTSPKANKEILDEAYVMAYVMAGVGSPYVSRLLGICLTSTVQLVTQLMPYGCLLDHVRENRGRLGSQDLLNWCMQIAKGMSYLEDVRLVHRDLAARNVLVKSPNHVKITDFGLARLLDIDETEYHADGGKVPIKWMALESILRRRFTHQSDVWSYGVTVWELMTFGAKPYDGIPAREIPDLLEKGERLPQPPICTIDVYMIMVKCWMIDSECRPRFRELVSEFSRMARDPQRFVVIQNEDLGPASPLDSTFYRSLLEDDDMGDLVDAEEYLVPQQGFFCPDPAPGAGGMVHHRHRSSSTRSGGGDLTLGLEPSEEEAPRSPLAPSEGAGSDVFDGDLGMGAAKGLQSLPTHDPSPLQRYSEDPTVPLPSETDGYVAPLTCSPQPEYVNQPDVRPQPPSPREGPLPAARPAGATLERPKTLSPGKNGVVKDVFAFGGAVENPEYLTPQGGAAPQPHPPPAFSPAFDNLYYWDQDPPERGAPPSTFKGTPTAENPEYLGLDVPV
Chain of EGFR Exon 20 INSNPH Ba/F3 (P00533 with tags, fused parts or gaps DUP771-773): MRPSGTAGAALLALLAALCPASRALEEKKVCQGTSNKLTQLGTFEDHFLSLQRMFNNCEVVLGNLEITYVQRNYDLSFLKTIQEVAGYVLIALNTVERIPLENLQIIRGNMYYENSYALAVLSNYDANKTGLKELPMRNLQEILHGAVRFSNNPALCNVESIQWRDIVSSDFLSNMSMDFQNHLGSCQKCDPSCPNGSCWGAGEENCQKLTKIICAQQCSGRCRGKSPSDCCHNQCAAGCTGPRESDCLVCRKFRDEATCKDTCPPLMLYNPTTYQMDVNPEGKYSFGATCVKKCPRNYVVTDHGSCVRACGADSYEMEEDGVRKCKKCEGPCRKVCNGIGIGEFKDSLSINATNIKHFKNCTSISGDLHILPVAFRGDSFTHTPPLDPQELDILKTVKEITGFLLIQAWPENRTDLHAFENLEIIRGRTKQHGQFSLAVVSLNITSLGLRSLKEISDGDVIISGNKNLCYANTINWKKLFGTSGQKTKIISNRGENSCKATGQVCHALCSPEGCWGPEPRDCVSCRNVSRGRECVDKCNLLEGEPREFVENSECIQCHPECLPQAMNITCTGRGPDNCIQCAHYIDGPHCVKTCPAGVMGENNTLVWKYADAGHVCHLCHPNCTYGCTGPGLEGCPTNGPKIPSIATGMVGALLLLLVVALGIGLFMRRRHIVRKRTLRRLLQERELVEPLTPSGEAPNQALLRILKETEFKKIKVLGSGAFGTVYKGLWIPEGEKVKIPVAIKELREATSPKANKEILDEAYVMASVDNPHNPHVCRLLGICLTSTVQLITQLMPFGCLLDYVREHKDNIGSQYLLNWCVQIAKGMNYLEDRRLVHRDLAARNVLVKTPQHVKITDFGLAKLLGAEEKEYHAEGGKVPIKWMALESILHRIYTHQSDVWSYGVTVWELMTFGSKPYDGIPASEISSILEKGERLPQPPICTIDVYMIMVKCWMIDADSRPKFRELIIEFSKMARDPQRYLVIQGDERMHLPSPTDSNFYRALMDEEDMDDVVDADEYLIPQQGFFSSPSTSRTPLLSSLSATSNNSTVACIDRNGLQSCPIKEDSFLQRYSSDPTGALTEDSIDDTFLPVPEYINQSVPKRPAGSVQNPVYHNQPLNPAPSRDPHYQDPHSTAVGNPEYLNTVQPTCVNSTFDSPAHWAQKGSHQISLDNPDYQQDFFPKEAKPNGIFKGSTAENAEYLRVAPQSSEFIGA
Chain of Her2 Exon 20 INSYVMA Ba/F3 (P04626 with tags, fused parts or gaps DUP772-775): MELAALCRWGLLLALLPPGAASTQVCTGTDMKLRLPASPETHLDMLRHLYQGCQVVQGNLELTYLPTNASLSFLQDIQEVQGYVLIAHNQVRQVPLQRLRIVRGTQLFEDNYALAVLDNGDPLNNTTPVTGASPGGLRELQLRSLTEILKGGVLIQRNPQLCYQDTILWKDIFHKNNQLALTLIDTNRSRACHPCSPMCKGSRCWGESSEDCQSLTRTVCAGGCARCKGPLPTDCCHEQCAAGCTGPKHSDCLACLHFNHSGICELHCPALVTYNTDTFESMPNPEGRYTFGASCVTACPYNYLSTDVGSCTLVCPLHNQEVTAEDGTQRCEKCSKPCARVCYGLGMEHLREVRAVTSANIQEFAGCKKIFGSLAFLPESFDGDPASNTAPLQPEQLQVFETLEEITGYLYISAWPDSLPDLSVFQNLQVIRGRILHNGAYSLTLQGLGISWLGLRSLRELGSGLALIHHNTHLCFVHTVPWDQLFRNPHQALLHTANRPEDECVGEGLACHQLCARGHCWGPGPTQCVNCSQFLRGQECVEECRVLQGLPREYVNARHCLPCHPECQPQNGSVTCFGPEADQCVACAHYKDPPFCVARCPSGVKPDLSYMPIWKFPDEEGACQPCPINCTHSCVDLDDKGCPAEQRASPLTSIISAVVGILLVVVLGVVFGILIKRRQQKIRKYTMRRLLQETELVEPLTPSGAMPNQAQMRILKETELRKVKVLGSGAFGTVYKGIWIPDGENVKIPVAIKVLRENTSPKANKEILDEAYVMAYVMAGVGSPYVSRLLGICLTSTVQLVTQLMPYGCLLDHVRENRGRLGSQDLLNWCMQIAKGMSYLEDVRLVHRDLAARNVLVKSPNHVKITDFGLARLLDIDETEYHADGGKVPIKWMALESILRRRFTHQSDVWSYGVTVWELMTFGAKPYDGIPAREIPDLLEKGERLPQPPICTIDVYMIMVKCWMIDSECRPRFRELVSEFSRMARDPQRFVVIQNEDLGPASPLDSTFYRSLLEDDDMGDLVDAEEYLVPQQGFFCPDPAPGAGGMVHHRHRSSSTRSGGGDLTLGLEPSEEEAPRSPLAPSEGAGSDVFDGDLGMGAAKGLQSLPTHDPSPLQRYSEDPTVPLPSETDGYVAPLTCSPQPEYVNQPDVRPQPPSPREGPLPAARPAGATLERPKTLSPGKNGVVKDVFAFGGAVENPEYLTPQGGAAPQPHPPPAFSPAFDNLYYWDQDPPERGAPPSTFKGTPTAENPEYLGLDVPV
Chain of EGFR wt (P00533 25-1210): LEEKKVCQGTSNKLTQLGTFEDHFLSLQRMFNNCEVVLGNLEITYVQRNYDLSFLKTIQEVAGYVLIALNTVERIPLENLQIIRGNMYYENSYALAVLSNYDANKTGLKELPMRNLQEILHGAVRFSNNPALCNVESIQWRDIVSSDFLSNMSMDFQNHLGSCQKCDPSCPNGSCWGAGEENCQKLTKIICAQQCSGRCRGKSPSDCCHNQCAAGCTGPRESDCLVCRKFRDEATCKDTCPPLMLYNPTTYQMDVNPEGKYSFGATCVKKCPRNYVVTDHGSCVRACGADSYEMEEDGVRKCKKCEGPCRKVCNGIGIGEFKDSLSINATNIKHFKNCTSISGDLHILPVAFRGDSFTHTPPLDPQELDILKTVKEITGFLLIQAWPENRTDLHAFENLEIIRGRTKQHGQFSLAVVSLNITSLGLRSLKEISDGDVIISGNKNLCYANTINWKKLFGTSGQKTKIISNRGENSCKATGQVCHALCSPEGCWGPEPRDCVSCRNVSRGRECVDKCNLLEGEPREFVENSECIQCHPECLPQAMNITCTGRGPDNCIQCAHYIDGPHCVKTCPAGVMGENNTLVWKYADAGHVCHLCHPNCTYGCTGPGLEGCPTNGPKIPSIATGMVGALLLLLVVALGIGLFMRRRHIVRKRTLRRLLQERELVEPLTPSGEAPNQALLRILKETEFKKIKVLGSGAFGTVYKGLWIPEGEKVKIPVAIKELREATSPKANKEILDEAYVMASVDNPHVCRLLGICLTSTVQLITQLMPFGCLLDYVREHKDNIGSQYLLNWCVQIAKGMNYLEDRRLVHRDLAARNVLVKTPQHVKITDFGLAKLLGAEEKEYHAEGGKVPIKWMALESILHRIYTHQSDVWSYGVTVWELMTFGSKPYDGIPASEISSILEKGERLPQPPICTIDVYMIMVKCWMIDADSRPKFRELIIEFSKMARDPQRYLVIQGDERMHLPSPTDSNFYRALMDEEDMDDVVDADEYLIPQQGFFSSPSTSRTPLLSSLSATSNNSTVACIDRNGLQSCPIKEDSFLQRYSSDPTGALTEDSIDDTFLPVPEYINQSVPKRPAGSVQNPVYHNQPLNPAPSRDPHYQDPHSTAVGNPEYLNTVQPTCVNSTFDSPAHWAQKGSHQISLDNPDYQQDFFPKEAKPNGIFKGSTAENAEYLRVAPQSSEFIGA

| GI50 [1] [nM] | IC50 (HER2 INS YVMA) [nM] | IC50 (EGFR wt) [nM] | IC50 (A431) [nM] | Stability in presence of mouse liver microsomes without cofactor NADPH [% remaining after 50 min] [2] [% remaining after 50 min] | GI50 [3] [nM] | IC50 (H1781) [nM] | IC50 (H1975) [nM] | IC50 (EGFR T790ML858R) [nM] | Structure (SMILES) |
| --- | --- | --- | --- | --- | --- | --- | --- | --- | --- |
| 100 to 500 | ≤ 100 | ≤ 100 | 500 to 1000 | >99 | 100 to 500 | 500 to 1000 | 100 to 500 | ≤ 100 | C=CC(=O)N1CCc2ccc(-c3c(-c4ccc(CN5CCN(C)CC5)cc4)[nH]c4nccc(Cl)c34)cc21 [Example 60, 1-(6-(4-chloro-2-(4-((4-methylpiperazin-1-yl)methyl)phenyl)-1H-pyrrolo[2,3-b]pyridin-3-yl)indolin-1-yl)prop-2-en-1-one] |
| 100 to 500 | ≤ 100 | ≤ 100 | 100 to 500 | >99 | 100 to 500 | 500 to 1000 | ≤ 100 | ≤ 100 | C=CC(=O)N1CCc2ccc(-c3c(-c4ccc(CN(C)C)cc4)[nH]c4nccc(Cl)c34)cc21 [Example 61, 1-(6-(4-chloro-2-(4-((dimethylamino)methyl)phenyl)-1H-pyrrolo[2,3-b]pyridin-3-yl)indolin-1-yl)prop-2-en-1-one] |
| 100 to 500 | ≤ 100 | ≤ 100 | 100 to 500 | >99 | 100 to 500 | 500 to 1000 | ≤ 100 | ≤ 100 | C=CC(=O)Nc1cc(-c2c(-c3ccc(C4CCN(C)CC4)cc3)[nH]c3ncccc23)ccc1C [Example 79, N-(2-methyl-5-(2-(4-(1-methylpiperidin-4-yl)phenyl)-1H-pyrrolo[2,3-b]pyridin-3-yl)phenyl)acrylamide] |

The remaining lines, values behind:

| Structure (SMILES) | GI50 [1] [nM] | IC50 (HER2 INS YVMA) [nM] | IC50 (EGFR wt) [nM] | IC50 (A431) [nM] | Stability in presence of mouse liver microsomes without cofactor NADPH [% remaining after 50 min] [2] [% remaining after 50 min] | GI50 [3] [nM] | IC50 (H1781) [nM] | IC50 (H1975) [nM] | IC50 (EGFR T790ML858R) [nM] |
| --- | --- | --- | --- | --- | --- | --- | --- | --- | --- |
| C=CC(=O)N1CCc2ccc(-c3c(-c4ccnc(N5CCN(C)CC5)c4)[nH]c4nccc(Cl)c34)cc21 [Example 59, 1-(6-(4-chloro-2-(2-(4-methylpiperazin-1-yl)pyridin-4-yl)-1H-pyrrolo[2,3-b]pyridin-3-yl)indolin-1-yl)prop-2-en-1-one] | 100 to 500 | ≤ 100 | ≤ 100 | 100 to 500 | >99 | 100 to 500 | 100 to 500 | ≤ 100 | ≤ 100 |
| C=CC(=O)Nc1cc(-c2c(-c3ccc(C4CCN(C)CC4)cc3)[nH]c3nccc(OC)c23)ccc1C [Example 73, N-(5-(4-methoxy-2-(4-(1-methylpiperidin-4-yl)phenyl)-1H-pyrrolo[2,3-b]pyridin-3-yl)-2-methylphenyl)acrylamide] | ≤ 100 | ≤ 100 | ≤ 100 | 100 to 500 | 99 | ≤ 100 | 100 to 500 | ≤ 100 | ≤ 100 |
| C=CC(=O)Nc1cc(-c2c(-c3ccc(CN4CCOCC4)cc3)[nH]c3nccc(OC)c23)ccc1C [Example 75, N-(5-(4-methoxy-2-(4-(morpholinomethyl)phenyl)-1H-pyrrolo[2,3-b]pyridin-3-yl)-2-methylphenyl)acrylamide] | 100 to 500 | ≤ 100 | ≤ 100 | 100 to 500 | >99 | ≤ 100 | 100 to 500 | ≤ 100 | ≤ 100 |
| C=CC(=O)Nc1cc(-c2c(-c3cccc(CN4CCN(C)CC4)c3)[nH]c3nccc(OC)c23)ccc1C [Example 76, N-(5-(4-methoxy-2-(3-((4-methylpiperazin-1-yl)methyl)phenyl)-1H-pyrrolo[2,3-b]pyridin-3-yl)-2-methylphenyl)acrylamide] | 100 to 500 | ≤ 100 | ≤ 100 | 500 to 1000 | >99 | 100 to 500 | 500 to 1000 | ≤ 100 | ≤ 100 |
| C=CC(=O)Nc1cc(-c2c(-c3ccc(CN4CCN(C)CC4)cc3)[nH]c3nccc(OC)c23)ccc1C [Example 77, N-(5-(4-methoxy-2-(4-((4-methylpiperazin-1-yl)methyl)phenyl)-1H-pyrrolo[2,3-b]pyridin-3-yl)-2-methylphenyl)acrylamide] | 100 to 500 | ≤ 100 | ≤ 100 | 100 to 500 | >99 | 100 to 500 | 100 to 500 | ≤ 100 | ≤ 100 |
| C=CC(=O)Nc1cc(-c2c(-c3ccc(N4CCN(C)CC4)nc3)[nH]c3ncccc23)ccc1C [Example 78, N-(2-methyl-5-(2-(6-(4-methylpiperazin-1-yl)pyridin-3-yl)-1H-pyrrolo[2,3-b]pyridin-3-yl)phenyl)acrylamide 2,2,2-trifluoroacetate] | 100 to 500 | 100 to 500 | ≤ 100 | 100 to 500 | >99 | 500 to 1000 | 500 to 1000 | ≤ 100 | ≤ 100 |
| C=CC(=O)N1CCOc2ccc(-c3c(-c4ccc(N5CCN(C)CC5)cc4)[nH]c4nccc(Cl)c34)cc21 [Example 83, 1-(6-(4-chloro-2-(4-(4-methylpiperazin-1-yl)phenyl)-1H-pyrrolo[2,3-b]pyridin-3-yl)-2H-benzo[b][1,4]oxazin-4(3H)-yl)prop-2-en-1-one 2,2,2-trifluoroacetate] | 100 to 500 | ≤ 100 | ≤ 100 | 1000 to 100000 | >99 | 100 to 500 | 1000 to 100000 | 100 to 500 | ≤ 100 |
| C=CC(=O)N1CCCc2ccc(-c3c(-c4ccc(N5CCN(C)CC5)cc4)[nH]c4nccc(Cl)c34)cc21 [Example 86, 1-(7-(4-chloro-2-(4-(4-methylpiperazin-1-yl)phenyl)-1H-pyrrolo[2,3-b]pyridin-3-yl)-3,4-dihydroquinolin-1(2H)-yl)prop-2-en-1-one 2,2,2-trifluoroacetate] | 500 to 1000 | ≤ 100 | ≤ 100 | 1000 to 100000 | >99 | 500 to 1000 | 1000 to 100000 | 100 to 500 | ≤ 100 |
